Data published in ChEMBL document CHEMBL1201862, “PubChem BioAssay data set” (2004).
Active and inactive are the calls of the source.

Legend:
[1] = system: HeLa; assay: HeLa cell cytotoxicity, dose response, cytotoxicity control, 24 h, cherry-picked samples (AID 504726); assay type: functional, cell-based; details: Homo sapiens;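 note: potency for cytotoxicity as loss of luminescence signal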
[2] = target: ORF 73 (Human herpesvirus 8, UniProt O40947); assay: inhibitors of C-LANA binding to LBS DNA, dose response, biochemical, fluorescence polarization, cherry-picked samples (AID 504725); design: species or system Human gammaherpesvirus 8;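 note: fluorescence polarization of a labeled DNA duplex reporting LANA DNA binding; potency is for inhibitors that block LANA binding to the DNA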
[3] = system: Vero; assay: Vero cell cytotoxicity, cytotoxicity control for flavivirus capping enzyme inhibitors (AID 588742); assay type: functional; details: Chlorocebus sabaeus
[4] = target: Genome polyprotein (dengue virus type 2, UniProt P29990); assay: Dengue-2 NS5 methyltransferase inhibitors, primary screen, biochemical, confirmation dose response (AID 588689); assay type: functional
[5] = target: Tyrosine-protein phosphatase non-receptor type 11 (Homo sapiens, UniProt Q06124); assay: SHP2 phosphatase inhibition, dose response, selectivity assay for STEP inhibitor project, biochemical (AID 602367); assay type: functional; details: read-out: IC50_Mean
[6] = target: Tyrosine-protein phosphatase non-receptor type 5 (Homo sapiens, UniProt P54829); assay: STEP phosphatase inhibitors, confirmation, biochemical, fluorescence intensity, uHTS hits (AID 602372); assay type: functional; details: read-out: IC50_Mean
[7] = target: Dual specificity protein phosphatase 3 (Homo sapiens, UniProt P51452); assay: VHR phosphatase inhibition, dose response, selectivity assay for STEP inhibitor project, biochemical (AID 602374); assay type: functional; details: read-out: IC50_Mean
[8] = system: Streptococcus sp. 'group A'; assay: growth inhibition of control SK(-) GAS strain, dose response, counter-screen for streptokinase expression inhibitor project, luminescence, kanamycin, BacTiterGlo, confirmation (AID 1900); assay type: functional, organism-based
[9] = system: Streptococcus; assay: Luminescence Microorganism-Based Dose Response Follow up to Identify Compounds Cytotoxic to Streptococcus. [Related pubchem assays: 1677 (Project Summary), 1915, 1914, 1902 (Retest at Dose), 1900 (Counter Screen), 1662 (Primary HTS)]; assay type: functional, organism-based
[10] = target: T1, Streptokinase A (Streptococcus pyogenes serotype M1, UniProt P10520); assay: S. pyogenes streptokinase expression inhibitors, potency, dose response, plasminogen activation absorbance, OD405 (AID 1914); assay type: functional, Streptococcus pyogenes M1 GAS;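 note: secreted streptokinase activity via plasminogen activation per viability signal from cell pellet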
T1 sequence (P10520 whole entry): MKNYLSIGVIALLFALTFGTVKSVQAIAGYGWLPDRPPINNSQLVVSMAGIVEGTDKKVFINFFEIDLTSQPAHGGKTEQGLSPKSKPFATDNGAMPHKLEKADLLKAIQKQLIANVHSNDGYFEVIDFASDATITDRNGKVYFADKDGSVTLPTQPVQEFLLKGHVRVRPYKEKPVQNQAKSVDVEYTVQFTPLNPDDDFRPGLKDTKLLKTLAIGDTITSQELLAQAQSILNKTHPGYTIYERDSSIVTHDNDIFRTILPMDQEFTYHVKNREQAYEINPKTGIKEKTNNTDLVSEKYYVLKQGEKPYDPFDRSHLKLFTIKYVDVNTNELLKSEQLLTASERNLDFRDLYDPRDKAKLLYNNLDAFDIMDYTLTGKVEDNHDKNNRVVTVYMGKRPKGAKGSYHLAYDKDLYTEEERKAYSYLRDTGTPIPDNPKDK

[11] = system: Streptococcus; assay: Group A Streptococcus viability loss, dose response, counter-screen for streptokinase expression inhibitor project, luminescence, BacTiterGlo (AID 1915); assay type: functional, organism-based;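 note: potency for reduction of bacterial viability or growth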
[12] = target: Cyclin-dependent kinase 5/CDK5 activator 1 (Homo sapiens, UniProt Q00535); assay: CDK5/p35 kinase inhibitors, dose response, biochemical, cherry-picked samples, set 2 (AID 504545)
[13] = target: C-C chemokine receptor type 6 (Homo sapiens, UniProt P51684); assay: CCR6 receptor antagonists, dose response, cell-based, luminescent beta-arrestin readout (AID 504728); assay type: functional
[14] = target: Beta-galactosidase (Escherichia coli, UniProt Q8VNN2); assay: beta-galactosidase enzyme inhibitors and activators, dose response, artefact control for CCR6 antagonist project, biochemical, E. coli enzyme, set 3 (AID 504712); assay type: functional
[15] = target: T2, Endoribonuclease toxin MazF (Escherichia coli K-12, UniProt P0AE70); assay: MazF toxin RNase activators, dose response, biochemical, fluorescence, single-stranded RNA substrate, uHTS hits (AID 588481); assay type: functional
T2 sequence (P0AE70 whole entry): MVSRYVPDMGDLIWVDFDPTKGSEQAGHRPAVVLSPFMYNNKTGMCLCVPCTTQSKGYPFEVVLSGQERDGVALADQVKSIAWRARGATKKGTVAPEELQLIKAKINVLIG

[16] = target: T2, Endoribonuclease toxin MazF; assay: fluorescent RNA oligo signal without MazF, dose response, counter-screen for MazEF activator project, biochemical, fluorescence, single-stranded RNase substrate (AID 588502); assay type: functional
[17] = target: 26S proteasome non-ATPase regulatory subunit 14 (Homo sapiens, UniProt O00487); assay: inhibition of proteasome subunit RPN11 – biochemical, fluorescence polarization, uHTS hits, confirmation (AID 602368); assay type: functional
[18] = target: 72 kDa type IV collagenase (Homo sapiens, UniProt P08253); assay: Dose Response validation of uHTS RPN11 inhibitor hits using a MMP-2 Fluorescence assay.; assay type: functional
[19] = target: Prothrombin (Bos taurus, UniProt P00735); assay: thrombin inhibition, dose response, biochemical, fluorescence polarization, uHTS hits (AID 602369); assay type: functional

Sequence of Genome polyprotein (P29990 2492-3391 limits assumed): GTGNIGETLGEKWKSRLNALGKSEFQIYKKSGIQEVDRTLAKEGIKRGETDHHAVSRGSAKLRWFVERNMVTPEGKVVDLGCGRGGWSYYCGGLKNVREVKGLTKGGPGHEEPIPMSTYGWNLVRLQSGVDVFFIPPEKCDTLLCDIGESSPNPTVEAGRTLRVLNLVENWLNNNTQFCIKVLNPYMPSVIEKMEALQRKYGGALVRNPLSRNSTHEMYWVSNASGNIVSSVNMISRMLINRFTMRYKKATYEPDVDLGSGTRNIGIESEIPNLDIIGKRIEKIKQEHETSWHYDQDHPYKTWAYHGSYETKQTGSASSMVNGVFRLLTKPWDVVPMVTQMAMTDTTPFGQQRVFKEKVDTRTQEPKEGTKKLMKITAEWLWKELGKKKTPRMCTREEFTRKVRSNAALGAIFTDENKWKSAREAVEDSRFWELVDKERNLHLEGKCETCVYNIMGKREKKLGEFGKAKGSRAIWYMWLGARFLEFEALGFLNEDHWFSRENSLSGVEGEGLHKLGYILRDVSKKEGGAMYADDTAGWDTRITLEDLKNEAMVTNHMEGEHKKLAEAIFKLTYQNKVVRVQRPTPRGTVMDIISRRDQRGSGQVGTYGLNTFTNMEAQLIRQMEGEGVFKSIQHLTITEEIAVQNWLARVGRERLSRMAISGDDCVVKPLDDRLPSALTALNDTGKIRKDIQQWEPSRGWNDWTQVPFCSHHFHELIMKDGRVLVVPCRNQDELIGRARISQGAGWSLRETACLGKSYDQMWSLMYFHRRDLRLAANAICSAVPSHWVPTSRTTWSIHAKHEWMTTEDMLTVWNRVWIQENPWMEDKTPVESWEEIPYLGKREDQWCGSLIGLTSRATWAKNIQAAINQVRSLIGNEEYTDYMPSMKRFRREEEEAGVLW
Sequence of Dual specificity protein phosphatase 3 (P51452 whole entry): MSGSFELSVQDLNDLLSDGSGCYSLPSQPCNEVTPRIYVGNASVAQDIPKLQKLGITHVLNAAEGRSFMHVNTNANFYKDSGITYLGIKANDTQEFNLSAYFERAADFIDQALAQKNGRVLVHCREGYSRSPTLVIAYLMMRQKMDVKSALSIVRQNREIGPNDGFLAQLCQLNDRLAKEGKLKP
Sequence of 26S proteasome non-ATPase regulatory subunit 14 (O00487 whole entry): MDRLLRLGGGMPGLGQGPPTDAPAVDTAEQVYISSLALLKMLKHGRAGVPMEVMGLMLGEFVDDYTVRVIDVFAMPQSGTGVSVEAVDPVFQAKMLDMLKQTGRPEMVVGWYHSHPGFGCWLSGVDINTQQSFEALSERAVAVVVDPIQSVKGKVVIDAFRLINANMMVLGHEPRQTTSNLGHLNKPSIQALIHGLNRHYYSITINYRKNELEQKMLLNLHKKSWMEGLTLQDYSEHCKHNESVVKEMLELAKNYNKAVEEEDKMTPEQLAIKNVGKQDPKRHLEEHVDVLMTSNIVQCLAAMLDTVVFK
Sequence of 72 kDa type IV collagenase (P08253 whole entry): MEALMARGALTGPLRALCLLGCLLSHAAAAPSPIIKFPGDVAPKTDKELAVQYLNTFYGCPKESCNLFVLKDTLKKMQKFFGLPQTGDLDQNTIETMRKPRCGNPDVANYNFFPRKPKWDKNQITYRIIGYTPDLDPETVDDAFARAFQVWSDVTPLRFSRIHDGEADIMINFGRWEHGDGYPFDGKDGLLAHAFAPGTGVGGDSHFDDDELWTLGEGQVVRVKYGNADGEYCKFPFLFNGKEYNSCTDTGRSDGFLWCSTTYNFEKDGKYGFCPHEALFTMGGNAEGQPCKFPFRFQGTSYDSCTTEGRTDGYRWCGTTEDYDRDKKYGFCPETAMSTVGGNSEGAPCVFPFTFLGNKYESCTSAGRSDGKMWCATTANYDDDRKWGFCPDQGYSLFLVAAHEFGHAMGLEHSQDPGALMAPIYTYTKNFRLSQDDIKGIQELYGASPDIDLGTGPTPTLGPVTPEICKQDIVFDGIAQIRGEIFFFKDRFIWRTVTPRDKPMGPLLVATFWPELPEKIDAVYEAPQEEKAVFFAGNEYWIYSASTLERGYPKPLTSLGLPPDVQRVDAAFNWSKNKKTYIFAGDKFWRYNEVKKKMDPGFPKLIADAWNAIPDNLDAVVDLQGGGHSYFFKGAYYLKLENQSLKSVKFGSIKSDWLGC
Sequence of Tyrosine-protein phosphatase non-receptor type 5 (P54829 whole entry): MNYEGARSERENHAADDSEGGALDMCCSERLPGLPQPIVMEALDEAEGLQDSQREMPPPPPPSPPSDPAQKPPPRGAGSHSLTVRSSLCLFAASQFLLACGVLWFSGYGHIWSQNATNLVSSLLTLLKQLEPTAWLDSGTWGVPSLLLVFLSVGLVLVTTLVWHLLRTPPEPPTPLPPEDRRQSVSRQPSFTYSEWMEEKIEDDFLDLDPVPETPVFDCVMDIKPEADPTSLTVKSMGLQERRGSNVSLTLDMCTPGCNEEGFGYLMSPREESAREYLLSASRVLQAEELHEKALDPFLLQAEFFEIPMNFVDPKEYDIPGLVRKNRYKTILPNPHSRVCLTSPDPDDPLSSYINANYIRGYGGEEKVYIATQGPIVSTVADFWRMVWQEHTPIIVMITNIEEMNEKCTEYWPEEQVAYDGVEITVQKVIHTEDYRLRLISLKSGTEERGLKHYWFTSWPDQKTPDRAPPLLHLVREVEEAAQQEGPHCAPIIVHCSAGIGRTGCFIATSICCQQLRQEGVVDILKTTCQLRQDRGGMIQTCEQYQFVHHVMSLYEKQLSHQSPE
Sequence of ORF 73 (O40947 whole entry): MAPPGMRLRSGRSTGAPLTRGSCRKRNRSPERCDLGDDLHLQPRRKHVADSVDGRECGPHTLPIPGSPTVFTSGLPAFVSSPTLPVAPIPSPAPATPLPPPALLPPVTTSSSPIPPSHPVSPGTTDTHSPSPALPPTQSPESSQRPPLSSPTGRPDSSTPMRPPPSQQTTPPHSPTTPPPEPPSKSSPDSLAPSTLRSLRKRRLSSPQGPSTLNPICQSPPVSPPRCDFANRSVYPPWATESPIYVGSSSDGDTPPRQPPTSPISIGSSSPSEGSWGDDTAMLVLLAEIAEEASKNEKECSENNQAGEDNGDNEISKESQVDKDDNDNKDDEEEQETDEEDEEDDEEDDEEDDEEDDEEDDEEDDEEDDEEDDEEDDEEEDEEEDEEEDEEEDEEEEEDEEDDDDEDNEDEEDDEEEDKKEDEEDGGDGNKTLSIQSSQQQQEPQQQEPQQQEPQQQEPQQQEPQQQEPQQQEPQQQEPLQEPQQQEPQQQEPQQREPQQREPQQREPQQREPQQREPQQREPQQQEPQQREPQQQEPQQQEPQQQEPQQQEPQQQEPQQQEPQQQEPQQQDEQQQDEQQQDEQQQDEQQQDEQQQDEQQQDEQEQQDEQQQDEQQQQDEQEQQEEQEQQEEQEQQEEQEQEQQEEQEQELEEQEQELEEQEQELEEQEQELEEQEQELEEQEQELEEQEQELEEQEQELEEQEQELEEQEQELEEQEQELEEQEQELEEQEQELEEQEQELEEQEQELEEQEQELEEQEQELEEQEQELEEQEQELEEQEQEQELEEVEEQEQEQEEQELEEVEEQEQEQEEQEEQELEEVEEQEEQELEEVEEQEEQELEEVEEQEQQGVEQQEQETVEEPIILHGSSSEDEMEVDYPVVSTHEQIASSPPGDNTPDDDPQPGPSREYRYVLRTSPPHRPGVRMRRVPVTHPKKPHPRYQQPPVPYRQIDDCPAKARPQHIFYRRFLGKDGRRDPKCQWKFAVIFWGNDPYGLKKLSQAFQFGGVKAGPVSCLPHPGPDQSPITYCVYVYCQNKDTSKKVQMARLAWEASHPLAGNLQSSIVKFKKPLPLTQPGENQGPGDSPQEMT
Sequence of Cyclin-dependent kinase 5/CDK5 activator 1 (Q00535 whole entry): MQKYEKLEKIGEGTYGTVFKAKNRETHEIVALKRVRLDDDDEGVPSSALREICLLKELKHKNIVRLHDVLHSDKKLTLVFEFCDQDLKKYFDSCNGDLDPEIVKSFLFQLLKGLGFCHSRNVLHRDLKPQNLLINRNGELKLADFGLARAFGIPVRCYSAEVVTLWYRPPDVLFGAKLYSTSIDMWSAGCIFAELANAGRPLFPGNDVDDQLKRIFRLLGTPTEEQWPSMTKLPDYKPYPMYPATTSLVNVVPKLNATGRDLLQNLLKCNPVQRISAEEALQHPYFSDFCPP
Sequence of Cyclin-dependent kinase 5/CDK5 activator 1 (Q15078 whole entry, further chain): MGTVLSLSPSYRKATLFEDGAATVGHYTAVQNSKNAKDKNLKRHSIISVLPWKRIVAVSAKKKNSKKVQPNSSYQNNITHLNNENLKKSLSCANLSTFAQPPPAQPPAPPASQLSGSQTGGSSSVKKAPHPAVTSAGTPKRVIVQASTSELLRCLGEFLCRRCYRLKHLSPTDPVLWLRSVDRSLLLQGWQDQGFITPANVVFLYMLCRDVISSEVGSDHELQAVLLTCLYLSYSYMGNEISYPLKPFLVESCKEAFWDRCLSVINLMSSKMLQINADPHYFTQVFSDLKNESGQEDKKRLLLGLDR
Sequence of Tyrosine-protein phosphatase non-receptor type 11 (Q06124 whole entry): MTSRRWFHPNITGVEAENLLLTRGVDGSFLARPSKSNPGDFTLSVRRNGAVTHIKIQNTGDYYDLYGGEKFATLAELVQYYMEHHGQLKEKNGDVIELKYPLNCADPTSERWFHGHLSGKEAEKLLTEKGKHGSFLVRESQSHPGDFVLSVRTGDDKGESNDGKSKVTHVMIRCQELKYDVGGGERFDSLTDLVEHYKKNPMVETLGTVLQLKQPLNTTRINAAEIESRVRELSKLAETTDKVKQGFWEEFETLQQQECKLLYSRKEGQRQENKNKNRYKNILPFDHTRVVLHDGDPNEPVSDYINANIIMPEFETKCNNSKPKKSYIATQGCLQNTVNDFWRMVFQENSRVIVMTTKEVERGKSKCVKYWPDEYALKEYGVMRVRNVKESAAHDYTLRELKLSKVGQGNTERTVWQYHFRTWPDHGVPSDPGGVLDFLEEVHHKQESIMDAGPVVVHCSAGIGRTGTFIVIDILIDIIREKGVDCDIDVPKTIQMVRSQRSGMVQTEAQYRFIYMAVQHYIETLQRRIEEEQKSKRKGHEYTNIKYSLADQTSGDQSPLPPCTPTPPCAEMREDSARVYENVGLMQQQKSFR

**Q.** Which AC50 [1] does the source give for `CC1=C(O)C(O)=C(C2=C(O)C(O)=C(C)C(=O)C2=O)C(=O)C1=O` here?
**A.** 61.8 µM (active)

**Q.** What about the AC50 [2] of the same compound?
**A.** 312 µM (active)

**Q.** And the CC50 [3]?
**A.** 31.7 µM (active)

**Q.** And the IC50 [4]?
**A.** 28.3 µM (active)

**Q.** What about the IC50 [5] of the same compound?
**A.** < 0.16 µM (active)

**Q.** And the IC50 [6]?
**A.** > 80 µM (inactive)

**Q.** And the IC50 [7]?
**A.** 1.27 µM (active)

**Q.** With `CCOC(=O)c1c(NC(=O)c2cccs2)sc(CC)c1-c1cccs1` as the compound, how does the EC50 [8] read?
**A.** 47.6 µM (active)

**Q.** And the EC50 [9]?
**A.** > 500 µM (not active)

**Q.** And the EC50 [10]?
**A.** 9.89 µM (active)

**Q.** And the EC50 [11]?
**A.** > 150 µM (not active)

**Q.** How did the AC50 [12] turn out when `CC(C)n1cnc2c(Nc3cccc(Cl)c3)nc(NCCCO)nc21` was run?
**A.** 2.59 µM (active)

**Q.** With `COc1ccccc1C(=O)/N=C(\N)Nc1nc2ccccc2o1` as the compound, how does the IC50 [13] read?
**A.** > 66.6 µM (inactive)

**Q.** What about the IC50 [14] of the same compound?
**A.** > 66.6 µM (inactive)

**Q.** What about the EC50 [15] of the same compound?
**A.** > 99 µM (inactive)

**Q.** What about the EC50 [16] of the same compound?
**A.** > 99 µM (inactive)

**Q.** And the IC50 [17]?
**A.** 38.3 µM (active)

**Q.** What about the IC50 [18] of the same compound?
**A.** > 100 µM (inactive)

**Q.** And the IC50 [19]?
**A.** 60.9 µM (active)
